Experimental data from US10259782B2, “ROR gamma (RORγ) modulators” (LEAD PHARMA HOLDING B.V., priority 2015, dated 2019).

The compounds below were run against T1, RORγ (Homo sapiens, UniProt P51449) (assay: RORγ GAL4 reporter gene assay (luciferase readout, 293FT cells)). Conditions: inhibition of RORγ (GAL4-RORγ-LBD) in transfected 293FT cells, luciferase signal, overnight incubation; read-out: mean pIC50 (converted).
T1 construct: expressed in transfected cells; host or cells: 293FT cells (Invitrogen), expression vector pFN26A (Promega)
T1 sequence (P51449 269-508 limits assumed): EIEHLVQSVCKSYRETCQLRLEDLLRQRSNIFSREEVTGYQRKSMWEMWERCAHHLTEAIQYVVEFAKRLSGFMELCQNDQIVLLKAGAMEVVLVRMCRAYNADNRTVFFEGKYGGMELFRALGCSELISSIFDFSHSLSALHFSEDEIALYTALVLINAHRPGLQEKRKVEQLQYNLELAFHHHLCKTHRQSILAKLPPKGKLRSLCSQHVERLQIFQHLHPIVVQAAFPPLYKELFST
Assay type: cell-based
Experimental: RORγ GAL4 Reporter Gene Assay
Example inhibitors 1-47 were tested for their ability to inhibit RORγ activity in a RORγ GAL4 reporter gene assay. The assay procedure and results are described below.
RORγ GAL4 Reporter Gene Assay Description
A GAL4 one-hybrid reporter system employing luciferase readout was established to determine inhibition of RORγ in 293FT cells. The RORγ ligand-binding domain (LBD) was fused to the yeast GAL4 DNA binding domain (DBD) and placed under the control of the human cytomegalovirus (CMV) immediate early promoter, using expression vector pFN26A (Promega) and standard recombinant DNA cloning methods. To serve as a control in the assay, a similar vector was generated in which the GAL4-DBD was fused to Herpes simplex virus protein 16 (VP16), a constitutive transcriptional activator.
To monitor the inhibitory effect of compounds on RORγ, a transcriptional reporter construct was used. The pGL4.35 vector (Promega) contains nine copies of the GAL4 Upstream Activator Sequence (UAS). This sequence drives the transcription of the luciferase reporter gene luc2P in response to binding of a fusion protein containing the GAL4 DNA binding domain, as for example expressed by the GAL4-RORγ-LBD and GAL4-VP16 expression vectors described above. To allow a GAL4 fusion protein to drive the expression of the luciferase reporter, the pGL4.35 expression vector and the appropriate GAL4 fusion protein expression vector were bulk transfected in the 293FT cells using standard transfection techniques.
The day after transfection, cells were plated into 96 well plates, test compound was added and the plates were incubated overnight. Subsequently, the firefly luciferase activity was quantified using luciferase detection reagent and luminescence readout.
Detailed Assay Description
293FT cells (Invitrogen) were transfected with a GAL4 fusion protein expression vector (as described above) and the transcriptional reporter construct (pGL4.35, Promega). 60 μL of TransIT-293 transfection reagent (Mirus Bio) was added drop wise to 1500 μl Opti-MEM I Reduced Serum Medium (Invitrogen) and incubated at room temperature (RT) for 5 to 20 minutes. 1500 μL of this reagent mixture was added to 5 μg of GAL4 fusion protein expression vector and 5 μg of the transcriptional reporter construct, and incubated at RT for 20 minutes.
To harvest 293FT cells from a T75 flask, first the culture medium was taken off the cells. Subsequently, the cells were washed with Phosphate Buffered Saline (PBS) (Lonza), after which the PBS was removed. To dissociate the cells, 1 ml of TrypLE Express (Invitrogen) was added to the flask, followed by incubation at RT until the cells visually started to detach. Cells were collected in 5 mL of assay medium (DMEM culture medium (Lonza), 10% dialyzed FBS (Invitrogen) and Pen/Strep (Lonza)) to achieve a single cell suspension. 10×10^6 cells were spun down and re-suspended in 10 mL of assay medium. Subsequently, the cell suspension was added to the transfection mix tube, and then transferred as a whole to a T75 flask (Greiner), followed by overnight (16-24 hours) incubation at 37° C. and 5% CO2.
For compound screening, the cells were harvested (as described above) and counted. 13×10^6 cells were spun down, the supernatant was aspirated and the cells were re-suspended in 17.3 mL of assay medium obtaining a cell suspension of 0.75×10^6 cells/mL. 80 μL of cell suspension (60,000 cells) was plated per well into a white, flat bottom, tissue culture treated, 96 well screening plates (Greiner).
Test compounds were diluted, starting from a 10 mM dimethylsulf oxide (DMSO) stock solution, to serial dilutions in DMSO at 500× the final test concentration. Subsequently, these solutions were diluted to 5× the final test concentration in two 10-fold-dilution steps in assay medium. The final DMSO concentration of the 5× test compound solution was 1%. […]

`O=C(Cc1ccc(S(=O)(=O)NC2CC2)cc1)Nc1ccc(-c2cccc(F)c2)c(Oc2cccc(Cl)c2)c1` [Example 17, N-[3-(3-chlorophenoxy)-4-(3-fluorophenyl)phenyl]-2-[4-(cyclopropylsulfamoyl)phenyl]acetamide] and `O=C(Cc1ccc(S(=O)(=O)NC2CC2)cc1)Nc1ccc(-c2ccc(F)c(F)c2)c(Oc2cccc(Cl)c2)c1` [Example 18, N-[3-(3-chlorophenoxy)-4-(3,4-difluorophenyl)phenyl]-2-[4-(cyclopropylsulfamoyl)phenyl]acetamide] cannot be ordered by IC50: ≤ 1000 nM for the first, ≤ 1000 nM for the second.

`N#Cc1cccc(-c2ccc(NC(=O)Cc3ccc(S(=O)(=O)CC4CC4)cc3)cc2Oc2cccc(Cl)c2)c1` [Example 10, N-[3-(3-chlorophenoxy)-4-(3-cyanophenyl)phenyl]-2-(4-cyclopropylmethanesulfonylphenyl)acetamide] and `O=C(Cc1ccc(S(=O)(=O)CC2CC2)cc1)Nc1ccc(-c2ccc(F)c(F)c2)c(Oc2cccc(Cl)c2)c1` [Example 5, N-[3-(3-chlorophenoxy)-4-(3,4-difluorophenyl)phenyl]-2-(4-cyclopropylmethanesulfonylphenyl)acetamide] cannot be ordered by IC50: ≤ 100 nM for the first, ≤ 100 nM for the second.

`COc1cccc(Oc2cc(NC(=O)Cc3ccc(S(=O)(=O)NC4CC4)cc3)ccc2-n2cnc(C)c2)c1` [Example 14, 2-[4-(cyclopropylsulfamoyl)phenyl]-N-[3-(3-methoxyphenoxy)-4-(4-methyl-1H-imidazol-1-yl)phenyl]acetamide] and `O=C(Cc1ccc(S(=O)(=O)CC2CC2)cc1)Nc1ccc(-c2ccc(F)cc2)c(Oc2cccc(F)c2)c1` [Example 12, 2-(4-cyclopropylmethanesulfonylphenyl)-N-[3-(3-fluorophenoxy)-4-(4-fluorophenyl)phenyl]acetamide] cannot be ordered by IC50: ≤ 1000 nM for the first, ≤ 100 nM for the second.

`Cc1cc(NC(=O)Cc2ccc(S(=O)(=O)CC3CC3)cc2)ccc1-c1ccccc1OC(F)(F)F` [Example 29, 2-(4-cyclopropylmethanesulfonylphenyl)-N-{3-methyl-4-[2-(trifluoromethoxy)phenyl]phenyl}acetamide] and `O=C(Cc1ccc(S(=O)(=O)CC2CC2)cc1)Nc1ccc(-c2ccccc2OC(F)(F)F)c(Cl)c1` [Example 28, N-{3-chloro-4-[2-(trifluoromethoxy)phenyl]phenyl}-2-(4-cyclopropylmethanesulfonylphenyl)acetamide] cannot be ordered by IC50: ≤ 100 nM for the first, ≤ 100 nM for the second.

`O=C(Cc1ccc(S(=O)(=O)CC2CC2)cc1)Nc1ccc(-c2ccccc2)c(Oc2ccccc2)c1` [Example 1, 2-(4-cyclopropylmethanesulfonylphenyl)-N-(3-phenoxy-4-phenylphenyl)acetamide] and `N#Cc1ccc(-c2ccc(NC(=O)Cc3ccc(S(=O)(=O)CC4CC4)cc3)cc2Oc2cccc(F)c2)cc1` [Example 9, N-[4-(4-cyanophenyl)-3-(3-fluorophenoxy)phenyl]-2-(4-cyclopropylmethanesulfonylphenyl)acetamide] cannot be ordered by IC50: ≤ 1000 nM for the first, ≤ 100 nM for the second.

`O=C(Cc1ccc(S(=O)(=O)CC2CC2)cc1)Nc1cc(-c2ccccc2)cs1` [Example 24, 2-(4-cyclopropylmethanesulfonylphenyl)-N-(4-phenylthiophen-2-yl)acetamide] and `O=C(Cc1ccc(S(=O)(=O)CC2CC2)cc1)Nc1ccc(-c2cnco2)cc1` [Example 43, 2-(4-cyclopropylmethanesulfonylphenyl)-N-[4-(1,3-oxazol-5-yl)phenyl]acetamide] cannot be ordered by IC50: ≤ 1000 nM for the first, ≤ 1000 nM for the second.

`Cc1cc(NC(=O)Cc2ccc(S(=O)(=O)NC3CC3)cc2)ncc1-c1ccccc1OC(F)(F)F` [Example 35, 2-[4-(cyclopropylsulfamoyl)phenyl]-N-{4-methyl-5-[2-(trifluoromethoxy)phenyl]pyridin-2-yl}acetamide] and `O=C(Cc1ccc(S(=O)(=O)CC2CC2)cc1)Nc1ccc(-c2ncon2)cc1` [Example 47, 2-(4-cyclopropylmethanesulfonylphenyl)-N-[4-(1,2,4-oxadiazol-3-yl)phenyl]acetamide] cannot be ordered by IC50: ≤ 1000 nM for the first, ≤ 1000 nM for the second.
